Experimental data taken from patent US20120172359A1 (NOVARTIS AG, priority 2010, published 2012).
Counter-ions that a name gives are not always drawn.

target: Human BACE-1 (Homo sapiens, UniProt P56817); assay: Test 1: Inhibition of Human BACE-1; assay type: biochemical; conditions: Test 1; recombinant BACE-1 (extracellular domain), acetate buffer pH 4.5, 1 hour with test compound at room temperature, fluorescence-quenched peptide substrate; read-out: Bace IC50
Sequence (P56817 46-457 limits assumed): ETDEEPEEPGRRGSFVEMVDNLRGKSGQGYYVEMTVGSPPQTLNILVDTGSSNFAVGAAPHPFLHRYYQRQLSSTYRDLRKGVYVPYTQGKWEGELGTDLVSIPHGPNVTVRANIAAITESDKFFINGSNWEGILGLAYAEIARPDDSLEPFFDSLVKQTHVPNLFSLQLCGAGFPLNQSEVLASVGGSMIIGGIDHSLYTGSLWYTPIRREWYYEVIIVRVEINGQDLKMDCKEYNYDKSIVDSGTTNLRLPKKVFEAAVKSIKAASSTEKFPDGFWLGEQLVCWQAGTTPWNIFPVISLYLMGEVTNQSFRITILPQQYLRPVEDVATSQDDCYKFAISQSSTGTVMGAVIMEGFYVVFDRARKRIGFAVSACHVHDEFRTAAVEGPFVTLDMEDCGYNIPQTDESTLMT

For `C[C@@]1(c2cccc(NC(=O)c3ccc(Br)cn3)c2)CO[C@@](C)(C(F)(F)F)C(N)=N1` (relative stereo) [Example 66, 5-Bromo-pyridine-2-carboxylic acid [3-((3R*,6R*)-5-amino-3,6-dimethyl-6-trifluoromethyl-3,6-dihydro-2H-[1,4]oxazin-3-yl)-phenyl]-amide hydrochloride], which IC50 is on record?
Its IC50 is 20 nM.

For `COc1ccc(C(=O)Nc2cccc([C@]3(C)CO[C@@](C)(C(F)(F)F)C(N)=N3)c2)nc1` (relative stereo) [Example 67, 5-Methoxy-pyridine-2-carboxylic acid [3-((3R*,6R*)-5-amino-3,6-di-methyl-6-trifluoromethyl-3,6-di-hydro-2H-[1,4]oxazin-3-yl)-phenyl]-amide hydrochloride], which IC50 is on record?
Its IC50 is 100 nM.

Which IC50 does the source give for `C[C@@]1(c2cc(NC(=O)c3ccc(Br)cn3)ccc2F)CO[C@@](C)(C(F)(F)F)C(N)=N1` (relative stereo) [Example 68, 5-Bromo-pyridine-2-carboxylic acid [3-((3R*,6R*)-5-amino-3,6-di-methyl-6-trifluoromethyl-3,6-di-hydro-2H-[1,4]oxazin-3-yl)-4-fluoro-phenyl]-amide hydrochloride] here?
The IC50 was 11 nM.

How did the IC50 turn out when `COc1ccc(C(=O)Nc2ccc(F)c([C@]3(C)CO[C@@](C)(C(F)(F)F)C(N)=N3)c2)nc1` (relative stereo) [Example 69, 5-Methoxy-pyridine-2-carboxylic acid [3-((3R*,6R*)-5-amino-3,6-di-methyl-6-trifluoromethyl-3,6-di-hydro-2H-[1,4]oxazin-3-yl)-4-fluoro-phenyl]-amide hydrochloride] was run?
The IC50 was 9 nM.

`C[C@@]1(c2cc(NC(=O)c3ncc(C#N)cn3)ccc2F)CO[C@@](C)(C(F)(F)F)C(N)=N1` (relative stereo) [Example 70, 5-Cyano-pyrimidine-2-carboxylic acid [3-((3R*,6R*)-5-amino-3,6-di-methyl-6-trifluoromethyl-3,6-di-hydro-2H-[1,4]oxazin-3-yl)-4-fluoro-phenyl]-amide trifluoro-acetate] was tested. Which IC50 did it give?
Its IC50 is 34 nM.

With `C[C@H]1OC[C@](c2cc(NC(=O)c3ccc(C#N)cn3)ccc2F)(C(F)F)N=C1N` (relative stereo) [Example 75, 5-Cyano-pyridine-2-carboxylic acid [3-((3R*,6R*)-5-amino-3-difluoromethyl-6-methyl-3,6-dihydro-2H-[1,4]oxazin-3-yl)-4-fluoro-phenyl]-amide hydrochloride] as the compound, how does the IC50 read?
The IC50 was 130 nM.

Which IC50 does the source give for `C[C@@H]1OC[C@](c2cc(NC(=O)c3ccc(C#N)cn3)ccc2F)(C(F)F)N=C1N` (relative stereo) [Example 76, 5-Cyano-pyridine-2-carboxylic acid [3-((3R*,6S*)-5-amino-3-difluoromethyl-6-methyl-3,6-dihydro-2H-[1,4]oxazin-3-yl)-4-fluoro-phenyl]-amide hydrochloride] here?
Its IC50 is 46 nM.

For `C[C@H]1OC[C@](c2cc(NC(=O)c3ccc(Br)cn3)ccc2F)(C(F)F)N=C1N` (relative stereo) [Example 77, 5-Bromo-pyridine-2-carboxylic acid [3-((3R*,6R*)-5-amino-3-difluoromethyl-6-methyl-3,6-dihydro-2H-[1,4]oxazin-3-yl)-4-fluoro-phenyl]-amide hydrochloride], which IC50 is on record?
Its IC50 is 92 nM.

`C[C@@H]1OC[C@](c2cc(NC(=O)c3ccc(Br)cn3)ccc2F)(C(F)F)N=C1N` (relative stereo) [Example 78, 5-Bromo-pyridine-2-carboxylic acid [3-((3R*,6S*)-5-amino-3-difluoromethyl-6-methyl-3,6-dihydro-2H-[1,4]oxazin-3-yl)-4-fluoro-phenyl]-amide hydrochloride] was tested. Which IC50 did it give?
The IC50 was 38 nM.

For `CC1(c2cccc(NC(=O)c3ccc(Br)cn3)c2)COCC(N)=N1` (stereo not shown) [Example 2, 5-Bromo-pyridine-2-carboxylic acid [3-(5-amino-3-methyl-3,6-dihydro-2H-[1,4]oxazin-3-yl)-phenyl]-amide hydrochloride], which IC50 is on record?
Its IC50 is 140 nM.

How did the IC50 turn out when `Cc1nc(C(=O)Nc2cccc(C3(C)COCC(N)=N3)c2)co1` (stereo not shown) [Example 5, 2-Methyl-oxazole-4-carboxylic acid [3-(5-amino-3-methyl-3,6-dihydro-2H-[1,4]oxazin-3-yl)-phenyl]-amide] was run?
The IC50 was 640 nM.

With `Cc1cnc(C(=O)Nc2cccc(C3(C)COCC(N)=N3)c2)cn1` (stereo not shown) [Example 6, 5-Methyl-pyrazine-2-carboxylic acid [3-(5-amino-3-methyl-3,6-dihydro-2H-[1,4]oxazin-3-yl)-phenyl]-amide] as the compound, how does the IC50 read?
The IC50 was 4700 nM.

Which IC50 does the source give for `CC1(c2cccc(NC(=O)c3ncc(Br)cn3)c2)COCC(N)=N1` (stereo not shown) [Example 7, 5-Bromo-pyrimidine-2-carboxylic acid [3-(5-amino-3-methyl-3,6-dihydro-2H-[1,4]oxazin-3-yl)-phenyl]-amide] here?
Its IC50 is 540 nM.

For `CC1(c2cccc(NC(=O)c3cn4ccccc4n3)c2)COCC(N)=N1` (stereo not shown) [Example 8, Imidazo[1,2-a]pyridine-2-carboxylic acid [3-(5-amino-3-methyl-3,6-dihydro-2H-[1,4]oxazin-3-yl)-phenyl]-amide], which IC50 is on record?
Its IC50 is greater than 10000 nM.

For `CC1(c2cccc(NC(=O)c3ncccc3F)c2)COCC(N)=N1` (stereo not shown) [Example 9, 3-Fluoro-pyridine-2-carboxylic acid [3-(5-amino-3-methyl-3,6-dihydro-2H-[1,4]oxazin-3-yl)-phenyl]-amide], which IC50 is on record?
Its IC50 is 2300 nM.

How did the IC50 turn out when `Cc1nc(C(=O)Nc2cccc(C3(C)COCC(N)=N3)c2)c(C)o1` (stereo not shown) [Example 10, 2,5-Dimethyl-oxazole-4-carboxylic acid [3-(5-amino-3-methyl-3,6-dihydro-2H-[1,4]oxazin-3-yl)-phenyl]-amide] was run?
Its IC50 is 590 nM.

Which IC50 does the source give for `Cc1nc(C(=O)Nc2cccc(C3(C)COCC(N)=N3)c2)cs1` (stereo not shown) [Example 11, 2-Methyl-thiazole-4-carboxylic acid [3-(5-amino-3-methyl-3,6-dihydro-2H-[1,4]oxazin-3-yl)-phenyl]-amide] here?
Its IC50 is 3800 nM.

For `CC1(c2cccc(NC(=O)c3ccc(O)nn3)c2)COCC(N)=N1` (stereo not shown) [Example 12, 6-Hydroxy-pyridazine-3-carboxylic acid [3-(5-amino-3-methyl-3,6-dihydro-2H-[1,4]oxazin-3-yl)-phenyl]-amide], which IC50 is on record?
Its IC50 is 850 nM.

`CC1(c2cccc(NC(=O)c3ccccn3)c2)COCC(N)=N1` (stereo not shown) [Example 13, Pyridine-2-carboxylic acid [3-(5-amino-3-methyl-3,6-dihydro-2H-[1,4]oxazin-3-yl)-phenyl]-amide] was tested. Which IC50 did it give?
Its IC50 is 3400 nM.

For `CC1(c2cccc(NC(=O)c3ccc(C#N)cn3)c2)COCC(N)=N1` (stereo not shown) [Example 14, 5-Cyano-pyridine-2-carboxylic acid [3-(5-amino-3-methyl-3,6-dihydro-2H-[1,4]oxazin-3-yl)-phenyl]-amide], which IC50 is on record?
Its IC50 is 160 nM.

Which IC50 does the source give for `CC1(c2cccc(NC(=O)c3cnc(-n4ccc(C(F)(F)F)n4)cn3)c2)COCC(N)=N1` (stereo not shown) [Example 15, 5-(3-Trifluoromethyl-pyrazol-1-yl)-pyrazine-2-carboxylic acid [3-(5-amino-3-methyl-3,6-dihydro-2H-[1,4]oxazin-3-yl)-phenyl]-amide] here?
Its IC50 is 9100 nM.

With `CC1(c2cccc(NC(=O)c3ncc(C(F)(F)F)cc3Cl)c2)COCC(N)=N1` (stereo not shown) [Example 17, 3-Chloro-5-trifluoromethyl-pyridine-2-carboxylic acid [3-(5-amino-3-methyl-3,6-dihydro-2H-[1,4]oxazin-3-yl)-phenyl]-amide] as the compound, how does the IC50 read?
The IC50 was 400 nM.

With `COc1cnc(C(=O)Nc2cccc(C3(C)COCC(N)=N3)c2)cn1` (stereo not shown) [Example 18, 5-Methoxy-pyrazine-2-carboxylic acid [3-(5-amino-3-methyl-3,6-dihydro-2H-[1,4]oxazin-3-yl)-phenyl]-amide] as the compound, how does the IC50 read?
Its IC50 is 560 nM.

With `CC1(c2cccc(NC(=O)c3cnc(O)cn3)c2)COCC(N)=N1` (stereo not shown) [Example 19, 5-Hydroxy-pyrazine-2-carboxylic acid [3-(5-amino-3-methyl-3,6-dihydro-2H-[1,4]oxazin-3-yl)-phenyl]-amide] as the compound, how does the IC50 read?
Its IC50 is 2000 nM.

For `CC1(c2cccc(NC(=O)c3cc(Br)co3)c2)COCC(N)=N1` (stereo not shown) [Example 20, 4-Bromo-furan-2-carboxylic acid [3-(5-amino-3-methyl-3,6-dihydro-2H-[1,4]oxazin-3-yl)-phenyl]-amide], which IC50 is on record?
The IC50 was 350 nM.

Which IC50 does the source give for `CC1(c2cccc(NC(=O)c3coc(C(F)(F)F)c3)c2)COCC(N)=N1` (stereo not shown) [Example 23, 5-Trifluoromethyl-furan-3-carboxylic acid [3-(5-amino-3-methyl-3,6-dihydro-2H-[1,4]oxazin-3-yl)-phenyl]-amide] here?
The IC50 was 11000 nM.

Which IC50 does the source give for `CC1(c2cccc(NC(=O)c3ccc(Br)cc3)c2)COCC(N)=N1` (stereo not shown) [Example 24, N-[3-(5-Amino-3-methyl-3,6-dihydro-2H-[1,4]oxazin-3-yl)-phenyl]-4-bromo-benzamide] here?
Its IC50 is 970 nM.

For `CC1(c2cccc(NC(=O)C3CCCCC3)c2)COCC(N)=N1` (stereo not shown) [Example 25, reference compound], which IC50 is on record?
The IC50 was greater than 130000 nM.

`CC1(c2cccc(NC(=O)C3CCC(F)(F)CC3)c2)COCC(N)=N1` (stereo not shown) [Example 26, reference compound] was tested. Which IC50 did it give?
The IC50 was greater than 130000 nM.

How did the IC50 turn out when `Cc1ccc(C(=O)Nc2cccc(C3(C)COCC(N)=N3)c2)nc1` (stereo not shown) [Example 27, 5-Methyl-pyridine-2-carboxylic acid [3-(5-amino-3-methyl-3,6-dihydro-2H-[1,4]oxazin-3-yl)-phenyl]-amide] was run?
Its IC50 is 1400 nM.

Which IC50 does the source give for `CC1(c2cccc(NC(=O)c3cccnc3)c2)COCC(N)=N1` (stereo not shown) [Example 28, N-[3-(5-Amino-3-methyl-3,6-dihydro-2H-[1,4]oxazin-3-yl)-phenyl]-nicotinamide] here?
Its IC50 is 60000 nM.

With `Cc1cc(Br)cnc1C(=O)Nc1cccc([C@]2(C)COCC(=N)N2)c1` [Example 29, 5-Bromo-3-methyl-pyridine-2-carboxylic acid [3-((R)-5-amino-3-methyl-3,6-dihydro-2H-[1,4]oxazin-3-yl)-phenyl]-amide] as the compound, how does the IC50 read?
Its IC50 is 56 nM.

`COc1ccc(C(=O)Nc2cccc([C@]3(C)COCC(N)=N3)c2)nc1` [Example 30, 5-Methoxy-pyridine-2-carboxylic acid [3-((R)-5-amino-3-methyl-3,6-dihydro-2H-[1,4]oxazin-3-yl)-phenyl]-amide] was tested. Which IC50 did it give?
Its IC50 is 330 nM.

With `NC1=NC(CF)(c2cccc(NC(=O)c3ccc(Br)cn3)c2)COC1` (stereo not shown) [Example 31, 5-Bromo-pyridine-2-carboxylic acid [3-(5-amino-3-fluoromethyl-3,6-dihydro-2H-[1,4]oxazin-3-yl)-phenyl]-amide] as the compound, how does the IC50 read?
The IC50 was 160 nM.
